Results reported in the Deep4Chem optical property database.

Assay: photoluminescence quantum yield (fraction); solvent given as SMILES

C(#Cc1ccc(C#Cc2ccccc2)cc1)c1ccccc1
photoluminescence quantum yield (in ClC(Cl)Cl): 0.5

Cc1cc(C)c(N(c2ccccc2)c2ccc(S(=O)(=O)c3ccc(S(=O)(=O)c4ccc(N(c5ccccc5)c5c(C)cc(C)cc5C)cc4)cc3)cc2)c(C)c1
photoluminescence quantum yield (in Cc1ccccc1): 0.79

CCn1ncc2c3c(C#N)c4c5ccccc5n(C)c4nc3ccc21
photoluminescence quantum yield (in CCOC(C)=O): 0.56

O=C1c2ccc(-c3ccc(N(c4ccccc4)c4ccccc4)cc3)cc2S(=O)(=O)c2cccc(-c3ccc(N(c4ccccc4)c4ccccc4)cc3)c21
photoluminescence quantum yield (in c1ccc2c(c1)c1ccccc1n2-c1ccc(-c2ccc(-n3c4ccccc4c4ccccc43)cc2)cc1): 0.04

CC1=C(C)C(c2c(C)c(C)c3n2[B-](F)(F)[N+]2=C(C)C(C)=C(C)C2=C3)=[N+]2C1=Cc1c(C)c(C)c(C)n1[B-]2(F)F
photoluminescence quantum yield (in ClCCl): 0.7

Nc1ccc(C#Cc2ccc3ccc4ccc(C#Cc5ccc(NS(=O)(=O)c6ccc([N+](=O)[O-])cc6[N+](=O)[O-])cc5)c5ccc2c3c45)cc1
photoluminescence quantum yield (in CO): 0.016

CCc1c(C)[nH]c(C2=[N+]3C(=C(C)c4c(C)c(CC)c(C)n4[B-]3(F)F)c3ccccc32)c1C
photoluminescence quantum yield (in C1CCOC1): 0.27
photoluminescence quantum yield (in CC#N): 0.21
photoluminescence quantum yield (in CCCCCC): 0.93
photoluminescence quantum yield (in CO): 0.21
photoluminescence quantum yield (in Cc1ccccc1): 0.71
photoluminescence quantum yield (in ClCCl): 0.72

C(#Cc1ccc2ccc3cccc4ccc1c2c34)c1ccccc1
photoluminescence quantum yield (in Cc1ccccc1): 0.61

CCN(CC)c1ccc2cc(-c3ccc(-c4ccc(-c5cc6ccccc6oc5=O)cc4)cc3)c(=O)oc2c1
photoluminescence quantum yield (in ClCCl): 0.59

Clc1ccc(/C=C/c2ccncn2)cc1
photoluminescence quantum yield (in ClCCl): 0.01

Cc1ccc(-n2c(-c3ccccc3O)nc(-c3ccccc3O)c2-c2ccccc2O)cc1
photoluminescence quantum yield (in C1CCOC1): 0.55
photoluminescence quantum yield (in CC(C)O): 0.6
photoluminescence quantum yield (in CO): 0.54
photoluminescence quantum yield (in CS(C)=O): 0.31
photoluminescence quantum yield (in ClC(Cl)Cl): 0.32
photoluminescence quantum yield (in ClCCl): 0.37

O=c1oc2ccccc2cc1/C=C/c1ccc([N+](=O)[O-])cc1
photoluminescence quantum yield (in CC#N): 0.04
